From PubChem BioAssay (NCI)
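Cells were grown in 96-well plates and exposed to each compound for 48 hours at five concentrations; endpoints were interpolated linearly between bracketing concentrations, or set to the highest concentration if not reached. TGI: total growth inhibition.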

Legend:
Test in all cases: DTP human tumour cell line panel, 48 h
786-0 renal = tested on: 786-0 renal
NCI-H226 lung = tested on: NCI-H226 lung
LOX IMVI melanoma = tested on: LOX IMVI melanoma
HOP-92 NSCLC = tested on: HOP-92 NSCLC
BT-549 breast = tested on: BT-549 breast
A549 NSCLC = tested on: A549 NSCLC
COLO 205 colon = tested on: COLO 205 colon
HCT-116 colon = tested on: HCT-116 colon
SW-620 colon = tested on: SW-620 colon
TK-10 renal = tested on: TK-10 renal
SK-MEL-28 melanoma = tested on: SK-MEL-28 melanoma
SF-295 CNS = tested on: SF-295 CNS
HOP-62 NSCLC = tested on: HOP-62 NSCLC
UACC-62 melanoma = tested on: UACC-62 melanoma
SK-OV-3 ovarian = tested on: SK-OV-3 ovarian
UACC-257 melanoma = tested on: UACC-257 melanoma
MCF7 breast = tested on: MCF7 breast
NCI-H23 lung = tested on: NCI-H23 lung
IGROV1 ovarian = tested on: IGROV1 ovarian
DU-145 prostate = tested on: DU-145 prostate

Row | SMILES | TGI (786-0 renal) [µM] | TGI (NCI-H226 lung) [µM] | TGI (LOX IMVI melanoma) [µM] | TGI (HOP-92 NSCLC) [µM] | TGI (BT-549 breast) [µM] | TGI (A549 NSCLC) [µM] | TGI (COLO 205 colon) [µM] | TGI (HCT-116 colon) [µM] | TGI (SW-620 colon) [µM] | TGI (TK-10 renal) [µM] | TGI (SK-MEL-28 melanoma) [µM] | TGI (SF-295 CNS) [µM] | TGI (HOP-62 NSCLC) [µM] | TGI (UACC-62 melanoma) [µM] | TGI (SK-OV-3 ovarian) [µM] | TGI (UACC-257 melanoma) [µM] | TGI (MCF7 breast) [µM] | TGI (NCI-H23 lung) [µM] | TGI (IGROV1 ovarian) [µM] | TGI (DU-145 prostate) [µM]
1 | O=c1oc2ccccc2cc1-c1csc(Nc2cc(Cl)cc(Cl)c2)n1 | 12.9 | > 56.1 | 7.62 | > 58.3 | > 100 | 16.9 | > 100 | > 38.3 | 50.9 | 85.2 | 59 | > 44.5 | 17.9 | > 100 | > 49.5 | > 100 | 61.4 | > 56.7 | 36 | > 100
2 | CCN(CC)CCOc1ccc(N2Cc3ccccc3C2=O)cc1 | > 10 | > 10 | > 10 | > 10 | > 10 | > 10 | > 10 | > 10 | > 10 | > 10 | > 10 | > 10 | > 10 | > 10 | > 10 | > 10 | > 10 | > 10 | > 10 | > 10
3 | N#Cc1nc(Sc2cnsn2)c(Sc2cnsn2)nc1C#N | 33.6 | 43.7 | 50.2 | > 70.5 | 39.2 | > 77.4 | 19 | 17.1 | > 22.5 | 12.1 | 53.6 | > 58.8 | 42.4 | 32.5 | 32.1 | 39 | > 59.1 | 46.2 | 37.3 | 35.5
4 | OC12CC3c4ccccc4NC3C3Oc4cccc5c4C31CCN(CC1CC1)C2C5 (stereo not given) | 32.2 | 74.9 | 30 | 24.5 | 34.7 | 38.3 | 39.7 | 33.5 | 39.1 | 31.1 | 28.6 | 94.1 | 32.8 | 33.3 | 34.6 | 32.4 | 32.8 | 30.6 | 29.8 | 36.5
5 | OC1CSCCCSCCSCCCSC1 | > 100 | > 100 | > 100 | > 100 | > 100 | > 100 | > 100 | > 100 | > 100 | > 100 | > 100 | > 100 | > 100 | > 100 | > 100 | > 100 | > 100 | > 100 | > 100 | > 100
6 | CC(=O)/C(N=Nc1ccc(-n2c(C)nc3ccc(Br)cc3c2=O)cc1)=C(/C)O | > 100 | > 100 | > 100 | > 100 | > 100 | > 100 | > 100 | > 100 | > 100 | > 100 | > 100 | > 100 | > 100 | > 100 | > 100 | > 100 | > 100 | > 100 | > 100 | > 100
7 | CC1=C(C(=O)NNC(=O)C(N)=O)CC(C(=O)NNC(=O)C(N)=O)=C(C)N1 | > 100 | > 100 | > 100 | > 100 | > 100 | > 100 | > 100 | > 100 | > 100 | > 100 | > 100 | > 100 | > 100 | > 100 | > 100 | > 100 | > 100 | > 100 | > 100 | > 100
8 | CC(C)C(C/C=C1/CC(CO)(COC(=O)C(C)(C)C)OC1=O)C(C)C (stereo not given) | 18.2 | 22.7 | 28.4 | 25.3 | 26.9 | 15.3 | 5.32 | 27.5 | 19 | 18 | 30.6 | 17.9 | 18.8 | 26 | 30.7 | 32.7 | 35.6 | 23.8 | 31.5 | 23.4
9 | COC(=O)C1=C([C@H]2COC(C)(C)O2)[C@H]2C[C@@H]1[C@@H]1OC(C)(C)O[C@@H]12 | > 100 | > 100 | > 100 | > 100 | > 100 | > 100 | > 100 | > 100 | > 100 | > 100 | > 100 | > 100 | > 100 | > 100 | > 100 | > 100 | > 100 | > 100 | > 100 | > 100
